These results are taken from article PMC7400437, “Synthesis and Evaluation of the Antibacterial Activities of 13-Substituted Berberine Derivatives” (Antibiotics, 2020).

The structures appear in SMILES notation.

One series has as its system P. aeruginosa. Kind of series: MIC, antimicrobial activity assay. Type of series: cell-based, Pseudomonas aeruginosa (ATCC 9027). The settings on record: Pseudomonas aeruginosa; Table 1 first screening; read-out: Minimal Inhibitory Concentration (MIC) P. aeruginosa.
The next series deals with S. aureus. Kind of series: MIC, antimicrobial activity assay. In kind it is cell-based, Staphylococcus aureus (ATCC 6538P). Particulars: Staphylococcus aureus; Table 1 first screening; read-out: Minimal Inhibitory Concentration (MIC) S. aureus.
Another series deals with M. smegmatis. Kind of series: microbe, parasite or virus in culture. The settings on record: Mycolicibacterium smegmatis, 72 h, read-out: Minimal Inhibitory Concentration (MIC) M. smegmatis. In kind it is cell-based, Mycobacterium smegmatis (mc2155, ATCC 700084).
The test system of the next series is C. albicans. Kind of series: MIC, antifungal activity assay. In kind it is cell-based, Candida albicans (DSM 10697). The settings on record: Candida albicans; Table 1 first screening; 35 °C, 24 h; read-out: Minimal Inhibitory Concentration (MIC) C. albicans.
The test system of a further series is B. subtilis. Kind of series: MIC, antimicrobial activity assay. Type of series: cell-based, Bacillus subtilis (ATCC 6633). The settings on record: Bacillus subtilis; Table 1 first screening; read-out: Minimal Inhibitory Concentration (MIC) B. subtilis.
The subject of a further series is E. coli. Kind of series: MIC, antimicrobial activity assay. In kind it is cell-based, Escherichia coli (ATCC 8739). The settings on record: Escherichia coli; Table 1 first screening; read-out: Minimal Inhibitory Concentration (MIC) E. coli.
The test system of series [1] is HepG2 (human liver cells). Kind of series: Cytotoxic assay on human cells (resazurin). Type of series: cell-based. Particulars: HepG2, 48 h, read-out: Inhibitory Concentration 50 (IC50) on cell viability, HEPG2. A digest of the protocol: (§1)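 Cells grown to confluence (48–72 h) were exposed for 48 h at 37 °C to 1:2 serial dilutions from 0 to 50 µM, with 0.5% DMSO as negative control. Resazurin 1:10 in PBS++ was added for 4 h, and fluorescence was read at 530/590 nm and normalized to DMSO wells. IC50 is the concentration giving 50% viability reduction.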
Background: Alamar Blue is a resazurin reagent that responds to reducing activity.

Series [2] concerns BEAS (human airway epithelial cells). Kind of series: Cytotoxic assay on human cells (resazurin). In kind it is cell-based. The settings on record: Epithelial cell, 48 h, means +/−SD, read-out: Inhibitory Concentration 50 (IC50) on cell viability, BEAS. A digest of the protocol:
as §1

Series [3] deals with Caco2 (human intestinal epithelial cells). Kind of series: Cytotoxic assay on human cells (resazurin). In kind it is cell-based. Particulars: Homo sapiens, Caco-2, 48 h, read-out: Inhibitory Concentration 50 (IC50) on cell viability, Caco2.
In series [4] the test system is selected relevant microorganisms. Kind of series: Antimicrobial activity, overall statement (active/inactive). Type of series: cell-based.
For series [5], the system named is bacterial membrane integrity. Kind of series: Bacterial membrane permeabilization assay (propidium iodide), strain not specified. In kind it is cell-based. The settings on record: data not shown. The procedure: Membrane permeabilization by berberine derivatives was evaluated using the cell-impermeable DNA/RNA probe propidium iodide as previously explained. Logarithmic growing bacterial suspensions were prepared from overnight bacterial suspension by 1 in 10 dilution. After 3 h incubation at 37 °C, 200 rpm, bacterial suspensions were centrifuged for 5 min at 3000 rpm. Cell pellets were then resuspended in sterile PBS at about 10^9 cells/mL. Propidium iodide (Sigma Aldrich) was then added to the suspension at a final concentration of 60 µM. 100 µL of this suspension were then transferred into 96-well black plates (Dominique Dutscher) and exposed to increasing concentrations of berberine’s derivative (from 0 to 100 µM, 1:2 dilution). […] All steps of the assay were performed in aerobic condition except for H. pylori which was done in microaerobic condition generated with GasPak unit (Sigma Aldrich). Bacteria were incubated at 37 °C and the kinetics of fluorescence variations (excitation at 530 nm and emission at 590 nm) were then recorded over time using a Synergy Mx microplate reader (Biotek). Cetyl trimethylammonium bromide (CTAB) at 300 µM was used as positive control giving 100% permeabilization. Results were expressed in % of permeabilization. All experiments were done in triplicate.

As for `CCOC(=O)Cc1c2[n+](cc3c(OC)c(OC)ccc13)CCc1cc3c(cc1-2)OCO3` [Compound 4, 13-(Acetic Acid Ethylester) Berberine], the melting point – broadly, the temperature, or range, at which the solid turns liquid – is 216 °C. In addition, the MIC in the series on P. aeruginosa was > 100 µM. In the series on S. aureus, the MIC was > 100 µM. Further, the MIC in the series on M. smegmatis was found to be 100 µM. Besides, the MIC in the series with C. albicans is > 100 µM. The MIC in the series with B. subtilis was > 100 µM. For the same molecule, the MIC with E. coli is > 100 µM.
The molecule `COc1ccc2c(Cc3ccc(F)cc3)c3[n+](cc2c1OC)CCc1cc2c(cc1-3)OCO2` [Compound 6, 13-(4-Fluorobenzyl)Berberine] returned a melting point of 238 °C. The MIC in the series on P. aeruginosa was > 100 µM. Further, the MIC in the series with S. aureus is 12.5 to 25 µM. Moreover, the MIC in the series with M. smegmatis was 25 µM. The MIC in the series with C. albicans is > 100 µM. Also, the MIC with B. subtilis turned out to be 50 µM. In addition, the IC50 in [1] is > 50 µM. For the same molecule, the IC50 in series [2] was > 50 µM. In [3], the IC50 worked out at 36.9 ± 4.3 µM. In the series with E. coli, the MIC was > 100 µM.
Regarding `COc1cc(Cc2c3[n+](cc4c(OC)c(OC)ccc24)CCc2cc4c(cc2-3)OCO4)cc(OC)c1OC` [Compound 15, 13[(3,4,5-Trimethoxyphenyl)methyl]Berberine], the “antimicrobial activity (active/inactive)” value in series [4] is recorded as “No Activity”. The MIC with P. aeruginosa was > 100 µM; in the series with S. aureus, 100 µM; in the series on M. smegmatis, 50 µM; in the series with C. albicans, > 100 µM; in the series with B. subtilis, > 100 µM; with E. coli, > 100 µM. Moreover, the “membrane permeabilization (inactive derivatives)” value in [5] is “low to no membrane permeabilization”.
As for `COc1ccc2c(Cc3ccc(/C=C/C(=O)c4cc(NC(C)=O)ccc4O)cc3)c3[n+](cc2c1OC)CCc1cc2c(cc1-3)OCO2` [Compound 24, N-{3-[(2E)-3-{4-[(Berberin-13-yl)methyl]phenyl}prop-2-enoyl]-4-hydroxyphenyl}acetamide], the “antimicrobial activity (active/inactive)” value in [4] was “No Activity”. Besides, the MIC was > 100 µM in the series on P. aeruginosa; 50 to 100 µM in the series on S. aureus; 25 µM in the series on M. smegmatis; > 100 µM with C. albicans; 100 µM in the series on B. subtilis; > 100 µM in the series on E. coli. Further, the “membrane permeabilization (inactive derivatives)” value in [5] is reported as “low to no membrane permeabilization”.
